Measurements as given in patent US8476197B2, “Aminopropenoates as fungicides” (priority 2009, dated 2013).
Where two headings read alike, the source gives them in different places. Marks after values point to notes of the source that are not given here. Values belong to the compound of their own block, whether it stands above or below them.

Structure (SMILES): COC(=O)C(C#N)=C(NC(C)c1nc(C)c(C)s1)c1cn(C)nc1C(F)F (racemic) [Compound 47]
Log P (pH 2.7): 2.65^[a]

Structure (SMILES): CCOC(=O)C(C#N)=C(NC(c1cc2ccccc2s1)C(F)(F)F)c1cn(C)nc1C(F)F (racemic) [Compound 48]
Log P (pH 2.7): 4.1^[a]

Structure (SMILES): CCOC(=O)C(C#N)=C(NC(c1cc2ccccc2s1)C(F)(F)F)c1c(C)nn(C)c1F (racemic) [Compound 51]
Log P (pH 2.7): 4.25^[a]

Structure (SMILES): COC(=O)C(C#N)=C(NC(C)Cc1c[nH]c2ccccc12)c1cn(C)nc1C(F)F (racemic) [Compound 57]
Log P (pH 2.7): 3^[a]

Structure (SMILES): COC(=O)C(C#N)=C(NC(C)c1ccccn1)c1cn(C)nc1C(F)F (racemic) [Compound 59]
Log P (pH 2.7): 2.05^[a]

Structure (SMILES): COC(=O)C(C#N)=C(NC(c1cc2ccccc2s1)C(F)(F)F)c1cn(C)nc1C(F)F (racemic) [Compound 60]
Log P (pH 2.7): 3.83^[a]

Structure (SMILES): COC(=O)C(C#N)=C(NC(C)c1nccs1)c1cn(C)nc1C(F)F (racemic) [Compound 61]
Log P (pH 2.7): 2.13^[a]

Structure (SMILES): CCOC(=O)C(C#N)=C(NC(C)c1nccs1)c1cn(C)nc1C(F)(F)F (racemic) [Compound 63]
Log P (pH 2.7): 2.78^[a]

Structure (SMILES): CCOC(=O)C(C#N)=C(NC(c1cc2ccccc2s1)C(F)(F)F)c1sccc1Br (racemic) [Compound 129]
Log P (pH 2.7): 4.9^[a]

Structure (SMILES): COC(=O)C(C#N)=C(NC(C)c1nc(C)c(C)s1)c1sc(C)nc1C(F)(F)F (racemic) [Compound 131]
Log P (pH 2.7): 3.46^[a]

Structure (SMILES): COC(=O)C(C#N)=C(NC(C)Cc1c[nH]c2ccccc12)c1sc(C)nc1C(F)(F)F (racemic) [Compound 133]
Log P (pH 2.7): 3.6^[a]

Structure (SMILES): CCOC(=O)C(C#N)=C(NC(c1cc2ccccc2s1)C(F)(F)F)c1c(C)nn(C)c1Cl (racemic) [Compound 137]
Log P (pH 2.7): 4.46^[a]

Structure (SMILES): CCOC(=O)C(C#N)=C(NC(C)c1nc(C)c(C)s1)c1sc(C)nc1C(F)(F)F (racemic) [Compound 143]
Log P (pH 2.7): 3.83^[a]

Structure (SMILES): CCOC(=O)C(C#N)=C(NC(C)Cc1cc2ccccc2[nH]1)c1sc(C)nc1C(F)(F)F (racemic) [Compound 145]
Log P (pH 2.7): 3.85^[a]

Structure (SMILES): CCOC(=O)C(C#N)=C(NC(c1cc2ccccc2s1)C(F)(F)F)c1cn(C)nc1C(F)(F)F (racemic) [Compound 147]
Log P (pH 2.7): 4.46^[a]

Structure (SMILES): CCOC(=O)C(C#N)=C(NC(c1cc2ccccc2s1)C(F)(F)F)c1sccc1Cl (racemic) [Compound 162]
Log P (pH 2.7): 4.89^[a]

Structure (SMILES): CCOC(=O)C(C#N)=C(NC(c1cc2ccccc2s1)C(F)(F)F)c1ccsc1I (racemic) [Compound 165]
Log P (pH 2.7): 4.81^[a]

Structure (SMILES): CCOC(=O)C(C#N)=C(NC(C)c1nc(C)cs1)c1sccc1C(F)(F)F (racemic) [Compound 174]
Log P (pH 2.7): 3.58^[a]

Structure (SMILES): COC(=O)C(C#N)=C(NC(C)c1sc(C)nc1C)c1sc(C)nc1C(F)(F)F (racemic) [Compound 179]
Log P (pH 2.7): 2.8^[a]

Structure (SMILES): COC(=O)C(C#N)=C(NC(C)c1nc(C)cs1)c1sc(C)nc1C(F)(F)F (racemic) [Compound 180]
Log P (pH 2.7): 3.04^[a]

Structure (SMILES): CCOC(=O)C(C#N)=C(NC(C)c1nccs1)c1cc(Cl)sc1Cl (racemic) [Compound 221]
Log P (pH 2.7): 3.65^[a]

Structure (SMILES): CCOC(=O)C(C#N)=C(NC(C)c1nccs1)c1cnc(Cl)cc1Cl (racemic) [Compound 223]
Log P (pH 2.7): 3^[a]

Structure (SMILES): CCOC(=O)C(C#N)=C(NC(C)c1nccs1)c1cccnc1C(F)(F)F (racemic) [Compound 232]
Log P (pH 2.7): 2.9^[a]

Structure (SMILES): CCOC(=O)C(C#N)=C(NC(C)c1ccccn1)c1cccnc1C(F)(F)F (racemic) [Compound 233]
Log P (pH 2.7): 2.88^[a]

Other lines, results leading:

Log P (pH 7.5): 3.76
Structure (SMILES): CCOC(=O)C(C#N)=C(NC(C)Cc1ncc(C(F)(F)F)cc1Cl)c1cccnc1Cl (racemic) [Compound 49]

Log P (pH 2.7): 2.28^[a]
Structure (SMILES): CCOC(=O)C(C#N)=C(NC(C)c1ccccn1)c1c(C)nn(C)c1F (racemic) [Compound 50]

Log P (pH 2.7): 4.01^[a]
Structure (SMILES): CCOC(=O)C(C#N)=C(NC(C)c1nc(C)c(C)s1)c1nsc(Cl)c1Cl (racemic) [Compound 53]

Log P (pH 2.7): 4.1^[a]
Structure (SMILES): CCOC(=O)C(C#N)=C(NC(C)Cc1c[nH]c2ccccc12)c1nsc(Cl)c1Cl (racemic) [Compound 54]

Log P (pH 2.7): 3.29^[a]
Structure (SMILES): CCOC(=O)C(C#N)=C(NC(C)c1nccs1)c1nsc(Cl)c1Cl (racemic) [Compound 55]

Log P (pH 7.5): 3.32
Structure (SMILES): CCOC(=O)C(C#N)=C(NC(C)c1ncc(Br)s1)c1cccnc1Cl (racemic) [Compound 128]

Log P (pH 2.7): 4.87^[a]
Structure (SMILES): CCOC(=O)C(C#N)=C(NC(c1cc2ccccc2s1)C(F)(F)F)c1ccsc1Br (racemic) [Compound 130]

Log P (pH 2.7): 2.77^[a]
Structure (SMILES): COC(=O)C(C#N)=C(NC(C)c1ccccn1)c1sc(C)nc1C(F)(F)F (racemic) [Compound 135]

Log P (pH 2.7): 2.49^[a]
Structure (SMILES): CCOC(=O)C(C#N)=C(NC(C)c1ccccn1)c1c(C)nn(C)c1Cl (racemic) [Compound 136]

Log P (pH 2.7): 2.75^[a]
Structure (SMILES): CCOC(=O)C(C#N)=C(NC(C)c1ccccn1)c1cn(C)nc1C(F)(F)F (racemic) [Compound 140]

Log P (pH 2.7): 3.13^[a]
Structure (SMILES): CCOC(=O)C(C#N)=C(NC(C)c1nccs1)c1sc(C)nc1C(F)(F)F (racemic) [Compound 142]

Log P (pH 2.7): 3.12^[a]
Structure (SMILES): CCOC(=O)C(C#N)=C(NC(C)c1ccccn1)c1sc(C)nc1C(F)(F)F (racemic) [Compound 146]

Log P (pH 2.3): 2.92 | Log P (pH 7.5): 2.89
Structure (SMILES): CCOC(=O)C(C#N)=C(NC(C)c1nccs1)c1cccnc1OCC (racemic) [Compound 148]

Log P (pH 7.5): 2.17
Structure (SMILES): CCOC(=O)C(C#N)=C(NC(C)c1nccs1)c1cccnc1C (racemic) [Compound 152]

Log P (pH 2.7): 2.81^[a]
Structure (SMILES): CCOC(=O)C(C#N)=C(NC(C)c1ccccn1)c1c(C(F)F)nn(C)c1Cl (racemic) [Compound 156]

Log P (pH 2.7): 3.75^[a]
Structure (SMILES): CCOC(=O)C(C#N)=C(NC(C)c1nc(C)c(C)s1)c1ccsc1I (racemic) [Compound 157]

Log P (pH 2.7): 3.08^[a]
Structure (SMILES): CCOC(=O)C(C#N)=C(NC(C)c1nccs1)c1ccsc1I (racemic) [Compound 158]

Log P (pH 2.7): 3.05^[a]
Structure (SMILES): CCOC(=O)C(C#N)=C(NC(C)c1ccccn1)c1sccc1Cl (racemic) [Compound 160]

Log P (pH 2.7): 3.03^[a]
Structure (SMILES): CCOC(=O)C(C#N)=C(NC(C)c1ccccn1)c1ccsc1I (racemic) [Compound 163]

Log P (pH 2.7): 3.8^[a]
Structure (SMILES): CCOC(=O)C(C#N)=C(NC(C)Cc1c[nH]c2ccccc12)c1ccsc1I (racemic) [Compound 164]

Log P (pH 2.7): 3.46^[a]
Structure (SMILES): CCOC(=O)C(C#N)=C(NC(C)c1ncc(C)s1)c1sccc1Br (racemic) [Compound 169]

Log P (pH 2.7): 3.09^[a]
Structure (SMILES): COC(=O)C(C#N)=C(NC(C)c1ncc(C)s1)c1sc(C)nc1C(F)(F)F (racemic) [Compound 182]

Log P (pH 2.7): 2.43^[a]
Structure (SMILES): CCOC(=O)C(C#N)=C(NC(C)c1sc(C)nc1C)c1cn(C)nc1C(F)F (racemic) [Compound 187]

Log P (pH 2.7): 2.41^[a]
Structure (SMILES): CCOC(=O)C(C#N)=C(NC(C)c1ccccn1)c1cc(Cl)sc1Cl (racemic) [Compound 222]

Log P (pH 2.7): 2.53^[a]
Structure (SMILES): CCOC(=O)C(C#N)=C(NC(C)c1nccs1)c1ncccc1Br (racemic) [Compound 224]

Log P (pH 2.7): 3.11^[a]
Structure (SMILES): CCOC(=O)C(C#N)=C(NC(C)c1nccs1)c1ncc(Cl)cc1Cl (racemic) [Compound 225]

Log P (pH 2.7): 2.26^[a]
Structure (SMILES): CCOC(=O)C(C#N)=C(NC(C)c1nccs1)c1cn(C)nc1OC (racemic) [Compound 229]

Log P (pH 7.5): 1.77
Structure (SMILES): CCOC(=O)C(C#N)=C(NC1CCOC1=O)c1cccnc1Cl (racemic) [Compound 231]
